One substance from patent US20090041672A1, “Drug for Treating or Diagnosing Vascular Lesion in the Skin or the Subcutaneous Soft Tissue Caused by Light Irradiation” (priority 2005, published 2009) can be followed below.

For one series, the system named is cock's combs. The experiment in a line: PDT of cock's comb, model of cutaneous vascular lesion (capillary hemangioma). In kind it is in vivo, cocks. An excerpt:
Animals Used: cocks (bodyweight: 2.5 to 3.5 kg) of 22 to 24 weeks old
Photosensitizer: talaporfin sodium
Laser Used Panalas6405, diode laser, wavelength: 664.5 nm±2 nm, output power: 75-500 mW
(§1) As the model of PDT to cutaneous vascular lesion (capillary hemangioma), cock's combs were used. Cock's comb is recognized as a model of cutaneous vascular lesion (capillary hemangioma) in this field. To each cock of 22 to 24 weeks old (bodyweight: about 2.5 kg), talaporfin sodium solution (concentration: 5 mg/ml) was intravenously injected from the brachial vein in an amount of 2.5 mg/kg bodyweight of the cock, in terms of the amount of talaporfin sodium. Immediately after the intravenous injection, the cock's comb was irradiated with a diode laser (wavelength: 664.5 nm±2 nm, irradiation power density: 127 mW/cm^2, energy density: 25 J/cm^2 or 50 J/cm^2). As an experimental group, (i) PDT-performed group was made, and as control groups, (ii) a group to which only the intravenous injection of talaporfin sodium was performed, and (iii) a group to which only laser irradiation was performed, were made. The mean plasma talaporfin sodium level at the end of the treatment was also measured.
Morphological changes during 7 days after the treatment were visually observed, and the cocks were subjected to autopsy 7 days after the treatment. Tissue preparations were stained by hematoxylin eosin staining by a conventional method, and as required, PTAH staining (fibrin staining) and AZAN staining (collagen fiber staining) were added.

The next series concerns skin of the upper arm. The experiment in a line: Safety tests to human: PDT on skin of the upper arm of normal individuals. In kind it is in vivo. How it is done:
(§2) To 2 normal individuals (Subject A: normal person, Subject B: normal person), talaporfin sodium was intravenously administered at a dose of 0.2 mg/kg. After the administration, the skin of the upper arm was irradiated with a diode laser (irradiation conditions: irradiation energy of 25 J/cm^2 and 50 J/cm^2 at an […] of 127 mW/cm^2, diameter of irradiated spots: 1 cm in both spots). Subject A was followed up for 2 weeks and Subject B was followed up for 2 months.

Series [1] is described as follows: Plasma talaporfin sodium level in cocks at the end of treatment. It is filed as in vivo. To be noted: 2.5 mg/kg intravenous, at end of laser treatment. The protocol: as §1
Series [2] is described as follows: Plasma drug level in human after PDT. It is filed as in vivo. As to conditions: from actually measured plasma level of Example 2. The protocol: as §2
Further, it was confirmed from the change with time of the plasma drug level measured after the PDT that the plasma level at which the photosensitive reaction no longer occurs is attained at 24 to 48 hours from the intravenous injection. This period of time is almost coincident with the period of time deduced from the model of pharmacokinetics, so that the correctness of the above-described estimated required shading time was confirmed.

Where [3] appears, read: PDT-performed group, autopsy 7 days after treatment.
The mark [4] stands for this setting: control group, only drug administration, no laser.

As to “Tetrasodium salt of mono-L-aspartyl chlorin e6 [talaporfin sodium]”, in the series on cock's combs (setting [3]), the “histological findings: blood vessels in the dermis (hematoxylin eosin)” value is “disappearance of vasodilated blood vessels in the dermis was observed”; the “histological findings: hyperplasia of collagen fibers in the stroma” value was “not observed”; the “histological findings: stratum corneum epidermidis and stratum basale epidermidis in the irradiated site” value is “the continuity of the stratum corneum epidermidis was maintained, and the stratum basale epidermidis was also conserved”; the “histological findings: vascular endothelial cells in the dermis (highly magnified image)” value is recorded as “disappearance of vascular endothelial cells was observed”. Besides, the “visual findings: decoloration reaction” value with cock's combs (PDT-performed group: 2.5 mg/kg i.v. + diode laser 664.5 nm, 127 mW/cm^2, 25 or 50 J/cm^2, observed 7 days) is recorded as “decoloration reaction was observed at the site coincident with the irradiated site”. Also, in the series with cock's combs (setting [4]), the histological findings entry was “No changes were observed” and the “visual findings: decoloration reaction” value is reported as “Decoloration reaction was not observed”. For the same substance, the “edema in the irradiated sites and vicinities” value with skin of the upper arm (0.2 mg/kg i.v. + diode laser 25 and 50 J/cm^2, from immediately after the PDT) is given as “slight edema was observed”. In the series with skin of the upper arm (0.2 mg/kg i.v. + diode laser 25 and 50 J/cm^2, up to 2 days after the treatment), the “erythema in the irradiated sites” value is listed as “slight erythema was observed”. Further, the “erythema in the irradiated sites” value in the series with skin of the upper arm (0.2 mg/kg i.v. + diode laser, one week after the treatment) is reported as “the erythema had been disappeared”. The “side effects at two months from the treatment” value in the series with skin of the upper arm (Subject B, 0.2 mg/kg i.v. + diode laser) is listed as “no side effects were observed”. In addition, the “mean plasma talaporfin sodium level at the end of treatment” value in series [1] is 2.3 µg/mL. Also, in series [2], the “amount of talaporfin sodium needed in human for attaining the plasma level found in cocks (2.3 μg/mL)” value came to 0.2 mg/kg.
